Measurements: ChEMBL document CHEMBL5352486, “Design, synthesis, in vitro - In vivo biological evaluation of novel thiazolopyrimidine compounds as antileishmanial agent with PTR1 inhibition” (Eur J Med Chem, 2023)
≈ marks a conversion by molar mass, not a printed value. Calls of active or inactive are those of the source. No cut-off for these calls is given here.

Tests used:
Leishmania tropica = test: Antileishmanial activity against Leishmania tropica MHOM/A7/1974/SAF-K27 incubated for 48 hrs by Neubauer hemocytometer analysis; assay type: functional, organism-based; settings: MHOM/A7/1974/SAF-K27, 48 h
[1] = (§1) Cytotoxicity against mouse L929 cells by alamar blue method; assay type: toxicity, cell-based; settings: mouse, L929 cells
L929 = test: as §1; assay type: toxicity, cell-based; settings: l929
[2] = (§2) Cytotoxicity against mouse RAW264.7 cells by alamar blue method; assay type: toxicity, cell-based; settings: mouse, RAW264.7 cells
RAW264.7 = test: as §2; assay type: toxicity, cell-based; settings: raw264.7
Leishmania infantum [3] = test: Antileishmanial activity against Leishmania infantum infected in BALB/c mouse model of cutaneous leishmaniasis assessed as footpad lesion development at 50 mg/kg/day, ID administered for 21 days and measured after 2 weeks by Giemsa staining based analysis (reference value: 1.61 +/- 0.03); assay type: functional; settings: time 21 day
Leishmania infantum [4] = test: Antileishmanial activity against Leishmania infantum infected in BALB/c mouse model of cutaneous leishmaniasis assessed as footpad lesion development at 50 mg/kg/day, ID administered for 21 days and measured after 4 weeks by Giemsa staining based analysis (reference value: 1.90 +/- 0.03); assay type: functional; settings: time 21 day
Leishmania infantum [5] = test: Antileishmanial activity against Leishmania infantum infected in BALB/c mouse model of cutaneous leishmaniasis assessed as footpad lesion development at 50 mg/kg/day, ID administered for 21 days and measured after 6 weeks by Giemsa staining based analysis (reference value: 2.40 +/- 0.03); assay type: functional; settings: time 21 day
Leishmania infantum [6] = test: Antileishmanial activity against Leishmania infantum infected in BALB/c mouse model of cutaneous leishmaniasis assessed as footpad lesion development at 50 mg/kg/day, ID administered for 21 days and measured after 10 weeks by Giemsa staining based analysis (reference value: 3.40 +/- 0.03); assay type: functional; settings: time 21 day
Leishmania infantum [7] = test: Antileishmanial activity against Leishmania infantum infected in BALB/c mouse model of cutaneous leishmaniasis assessed as footpad lesion development at 50 mg/kg/day, ID administered for 21 days and measured after 14 weeks by Giemsa staining based analysis (reference value: 3.88 +/- 0.03); assay type: functional; settings: time 21 day
Leishmania infantum [8] = test: Antileishmanial activity against Leishmania infantum infected in BALB/c mouse model of cutaneous leishmaniasis assessed as footpad lesion development at 50 mg/kg/day, ID administered for 21 days and measured after 16 weeks by Giemsa staining based analysis (reference value: 4.20 +/- 0.03); assay type: functional; settings: time 21 day
Leishmania infantum [9] = test: Antileishmanial activity against Leishmania infantum infected in BALB/c mouse model of cutaneous leishmaniasis assessed as footpad lesion development at 50 mg/kg/day, ID administered for 21 days and measured after 18 weeks by Giemsa staining based analysis (reference value: 4.42 +/- 0.03); assay type: functional; settings: time 21 day
Leishmania infantum [10] = test: Antileishmanial activity against Leishmania infantum infected in BALB/c mouse model of cutaneous leishmaniasis assessed as footpad lesion development at 50 mg/kg/day, ID administered for 21 days and measured after 22 weeks by Giemsa staining based analysis (reference value: 4.71 +/- 0.04); assay type: functional; settings: time 21 day
Leishmania infantum [11] = test: Antileishmanial activity against Leishmania infantum infected in BALB/c mouse model of cutaneous leishmaniasis assessed as footpad lesion development at 50 mg/kg/day, ID administered for 21 days and measured after 24 weeks by Giemsa staining based analysis (reference value: 4.90 +/- 0.02); assay type: functional; settings: time 21 day
Leishmania infantum [12] = test: Antileishmanial activity against Leishmania infantum infected in BALB/c mouse model of cutaneous leishmaniasis assessed as footpad lesion development at 50 mg/kg/day, ID administered for 21 days and measured after 26 weeks by Giemsa staining based analysis (reference value: 4.91 +/- 0.01); assay type: functional; settings: time 21 day
Leishmania infantum [13] = test: Antileishmanial activity against Leishmania infantum infected in BALB/c mouse model of cutaneous leishmaniasis assessed as footpad lesion development at 50 mg/kg/day, ID administered for 21 days and measured after 28 weeks by Giemsa staining based analysis (reference value: 4.92 +/- 0.01); assay type: functional; settings: time 21 day
Leishmania infantum [14] = test: Antileishmanial activity against Leishmania infantum infected in BALB/c mouse model of cutaneous leishmaniasis assessed as footpad lesion development at 50 mg/kg/day, ID administered for 21 days and measured after 30 weeks by Giemsa staining based analysis (reference value: 4.92 +/- 0.01); assay type: functional; settings: time 21 day
Leishmania infantum [15] = test: Antileishmanial activity against Leishmania infantum infected in BALB/c mouse model of cutaneous leishmaniasis assessed as footpad lesion development at 50 mg/kg/day, ID administered for 21 days and measured after 32 weeks by Giemsa staining based analysis (reference value: 4.91 +/- 0.01); assay type: functional; settings: time 21 day
Leishmania infantum [16] = test: Antileishmanial activity against Leishmania infantum infected in BALB/c mouse model of visceral leishmaniasis assessed as footpad lesion development at 50 mg/kg/day, IM administered for 21 days and measured after 1 week by Giemsa staining based analysis (reference value: 30.43 +/- 0.60); assay type: functional; settings: time 21 day
Leishmania infantum [17] = test: Antileishmanial activity against Leishmania infantum infected in BALB/c mouse model of visceral leishmaniasis assessed as footpad lesion development at 50 mg/kg/day, IM administered for 21 days and measured after 2 weeks by Giemsa staining based analysis (reference value: 29.73 +/- 0.63); assay type: functional; settings: time 21 day
Leishmania infantum [18] = test: Antileishmanial activity against Leishmania infantum infected in BALB/c mouse model of visceral leishmaniasis assessed as footpad lesion development at 50 mg/kg/day, IM administered for 21 days and measured after 4 weeks by Giemsa staining based analysis (reference value: 28.01 +/- 0.65); assay type: functional; settings: time 21 day
Leishmania infantum [19] = test: Antileishmanial activity against Leishmania infantum infected in BALB/c mouse model of visceral leishmaniasis assessed as footpad lesion development at 50 mg/kg/day, IM administered for 21 days and measured after 6 weeks by Giemsa staining based analysis (reference value: 25.81 +/- 0.84); assay type: functional; settings: time 21 day
Leishmania infantum [20] = test: Antileishmanial activity against Leishmania infantum infected in BALB/c mouse model of visceral leishmaniasis assessed as footpad lesion development at 50 mg/kg/day, IM administered for 21 days and measured after 7 weeks by Giemsa staining based analysis (reference value: 24.85 +/- 0.88); assay type: functional; settings: time 21 day
Leishmania infantum [21] = test: Antileishmanial activity against Leishmania infantum infected in BALB/c mouse model of visceral leishmaniasis assessed as footpad lesion development at 50 mg/kg/day, IM administered for 21 days and measured after 10 weeks by Giemsa staining based analysis (reference value: 21.58 +/- 0.74); assay type: functional; settings: time 21 day
Leishmania infantum [22] = test: Antileishmanial activity against Leishmania infantum infected in BALB/c mouse model of visceral leishmaniasis assessed as footpad lesion development at 50 mg/kg/day, IM administered for 21 days and measured after 11 weeks by Giemsa staining based analysis (reference value: 20.71 +/- 0.48); assay type: functional; settings: time 21 day
Leishmania infantum [23] = test: Antileishmanial activity against Leishmania infantum infected in BALB/c mouse model of visceral leishmaniasis assessed as parasite growth in liver at 50 mg/kg/day, IM administered for 21 days; assay type: functional, organism-based; settings: time 21.0 day
Leishmania infantum [24] = test: Antileishmanial activity against Leishmania infantum infected in BALB/c mouse model of cutaneous leishmaniasis assessed as parasite growth in liver at 50 mg/kg/day, ID administered for 21 days; assay type: functional, organism-based; settings: time 21.0 day
Leishmania infantum [25] = test: Antileishmanial activity against Leishmania infantum infected in BALB/c mouse model of cutaneous leishmaniasis assessed as parasite growth in spleen at 50 mg/kg/day, ID administered for 21 days; assay type: functional, organism-based; settings: time 21.0 day
Leishmania infantum [26] = test: Antileishmanial activity against Leishmania infantum infected in BALB/c mouse model of cutaneous leishmaniasis assessed as parasite growth in foodpad at 50 mg/kg/day, ID administered for 21 days; assay type: functional, organism-based; settings: time 21.0 day

With `CCOC(=O)N1CCN(c2ncc3nc(NC(=O)c4ccc(Cl)c(Cl)c4)sc3n2)CC1` the IC50 (Leishmania tropica) was 0.039 µg/mL (≈ 0.081 µM), the IC50 [1] was 14.1 µg/mL (≈ 29.3 µM) and the “log10 IC50 (µg/mL)” value (L929) was 1.15. For the same compound, the IC50 [2] was 15 µg/mL (≈ 31.2 µM), the “log10 IC50 (µg/mL)” value (RAW264.7) was 1.18 and the Activity (Leishmania infantum [3]) was 1.6. The Activity (Leishmania infantum [4]) was 1.88, the Activity (Leishmania infantum [5]) was 2.4 and the Activity (Leishmania infantum [6]) was 3.39. The Activity (Leishmania infantum [7]) was 3.81, the Activity (Leishmania infantum [8]) was 4.2 and the Activity (Leishmania infantum [9]) was 4.4. The Activity (Leishmania infantum [10]) was 4.69, the Activity (Leishmania infantum [11]) was 4.9 and the Activity (Leishmania infantum [12]) was 4.73. It also gave an Activity (Leishmania infantum [13]) of 3.8, an Activity (Leishmania infantum [14]) of 2.89 and an Activity (Leishmania infantum [15]) of 2.42. The Activity (Leishmania infantum [16]) was 30.63, the Activity (Leishmania infantum [17]) was 29.54 and the Activity (Leishmania infantum [18]) was 27.85. It also gave an Activity (Leishmania infantum [19]) of 25.71, an Activity (Leishmania infantum [20]) of 26.22 and an Activity (Leishmania infantum [21]) of 27.91. The Activity (Leishmania infantum [22]) was 28.55, the Activity (Leishmania infantum [23]) was “Active” and the Activity (Leishmania infantum [24]) was “Active”. For the same compound, the Activity (Leishmania infantum [25]) was “Active” and the Activity (Leishmania infantum [26]) was “Active”.

In the case of `CN1CCN(c2ncc3nc(NC(=O)c4ccc(Cl)c(Cl)c4)sc3n2)CC1`, the IC50 (Leishmania tropica) is reported as 7.71 µg/mL (≈ 18.2 µM), the IC50 [1] is reported as 27.7 µg/mL (≈ 65.5 µM) and the “log10 IC50 (µg/mL)” value (L929) is reported as 1.44. For the same compound, the IC50 [2] was 16.4 µg/mL (≈ 38.8 µM), the “log10 IC50 (µg/mL)” value (RAW264.7) was 1.22 and the Activity (Leishmania infantum [3]) was 1.61. It also gave an Activity (Leishmania infantum [4]) of 1.88, an Activity (Leishmania infantum [5]) of 2.41 and an Activity (Leishmania infantum [6]) of 3.41. The Activity (Leishmania infantum [7]) was 3.89, the Activity (Leishmania infantum [8]) was 4.21 and the Activity (Leishmania infantum [9]) was 4.4. It also gave an Activity (Leishmania infantum [10]) of 4.69, an Activity (Leishmania infantum [11]) of 4.89 and an Activity (Leishmania infantum [12]) of 4.87. It also gave an Activity (Leishmania infantum [13]) of 4.83, an Activity (Leishmania infantum [14]) of 4.78 and an Activity (Leishmania infantum [15]) of 4.73. For the same compound, the Activity (Leishmania infantum [16]) was 30.3, the Activity (Leishmania infantum [17]) was 29.53 and the Activity (Leishmania infantum [18]) was 27.9. For the same compound, the Activity (Leishmania infantum [19]) was 25.72, the Activity (Leishmania infantum [20]) was 24.43 and the Activity (Leishmania infantum [21]) was 21.12. For the same compound, the Activity (Leishmania infantum [22]) was 20.13, the Activity (Leishmania infantum [23]) was “inactive” and the Activity (Leishmania infantum [24]) was “Active”. The Activity (Leishmania infantum [25]) was “Active” and the Activity (Leishmania infantum [26]) was “inactive”.

In the case of `CN(C)c1ncc2nc(NC(=O)c3ccc(Cl)c([N+](=O)[O-])c3)sc2n1`, the IC50 (Leishmania tropica) is reported as 7.14 µg/mL (≈ 18.8 µM), the IC50 [1] is reported as 21 µg/mL (≈ 55.5 µM) and the “log10 IC50 (µg/mL)” value (L929) is reported as 1.32. The IC50 [2] was 8.75 µg/mL (≈ 23.1 µM), the “log10 IC50 (µg/mL)” value (RAW264.7) was 0.94 and the Activity (Leishmania infantum [3]) was 1.59. The Activity (Leishmania infantum [4]) was 1.89, the Activity (Leishmania infantum [5]) was 2.39 and the Activity (Leishmania infantum [6]) was 3.37. For the same compound, the Activity (Leishmania infantum [7]) was 3.83, the Activity (Leishmania infantum [8]) was 3.83 and the Activity (Leishmania infantum [9]) was 4.41. The Activity (Leishmania infantum [10]) was 4.67, the Activity (Leishmania infantum [11]) was 4.88 and the Activity (Leishmania infantum [12]) was 4.7. The Activity (Leishmania infantum [13]) was 3.71, the Activity (Leishmania infantum [14]) was 2.58 and the Activity (Leishmania infantum [15]) was 2.08. The Activity (Leishmania infantum [16]) was 30.38, the Activity (Leishmania infantum [17]) was 29.49 and the Activity (Leishmania infantum [18]) was 27.83. For the same compound, the Activity (Leishmania infantum [19]) was 26.28, the Activity (Leishmania infantum [20]) was 26.77 and the Activity (Leishmania infantum [21]) was 29.09. For the same compound, the Activity (Leishmania infantum [22]) was 29.85, the Activity (Leishmania infantum [23]) was “Active” and the Activity (Leishmania infantum [24]) was “Active”. The Activity (Leishmania infantum [25]) was “Active” and the Activity (Leishmania infantum [26]) was “Active”.
